{
  "source": "patent US20240269139A1",
  "about": "“COMPOUNDS FOR TARGETED PROTEIN DEGRADATION OF KINASES” (DANA-FARBER CANCER INSTITUTE, INC., priority 2020, published 2024)",
  "format_in_all_cases": "cell-based",
  "key": {"[1]": {"target": "protein kinases (human kinome) (Homo sapiens, UniProt O43353)", "sequence (O43353 whole entry)": "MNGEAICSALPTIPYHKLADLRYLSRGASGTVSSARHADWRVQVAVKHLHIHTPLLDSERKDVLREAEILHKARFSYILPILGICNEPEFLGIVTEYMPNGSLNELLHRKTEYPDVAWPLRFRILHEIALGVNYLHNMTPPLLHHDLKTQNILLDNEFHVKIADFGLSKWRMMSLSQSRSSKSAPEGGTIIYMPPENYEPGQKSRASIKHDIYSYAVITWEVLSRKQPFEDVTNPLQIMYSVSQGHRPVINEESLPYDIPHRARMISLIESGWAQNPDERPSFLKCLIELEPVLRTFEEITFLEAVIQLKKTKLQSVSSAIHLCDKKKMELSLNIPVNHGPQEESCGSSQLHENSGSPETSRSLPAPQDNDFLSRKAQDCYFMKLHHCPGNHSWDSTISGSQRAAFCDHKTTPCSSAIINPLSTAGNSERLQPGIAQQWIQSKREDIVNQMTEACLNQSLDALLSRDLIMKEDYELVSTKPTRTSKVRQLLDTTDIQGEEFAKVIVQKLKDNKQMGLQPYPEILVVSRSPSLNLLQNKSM", "conditions": "for logFC: RIPK2 (O43353-1)"}, "[2]": {"target": "T1, protein kinases (human kinome) (Homo sapiens, UniProt P21709)", "T1 sequence (P21709 26-976)": "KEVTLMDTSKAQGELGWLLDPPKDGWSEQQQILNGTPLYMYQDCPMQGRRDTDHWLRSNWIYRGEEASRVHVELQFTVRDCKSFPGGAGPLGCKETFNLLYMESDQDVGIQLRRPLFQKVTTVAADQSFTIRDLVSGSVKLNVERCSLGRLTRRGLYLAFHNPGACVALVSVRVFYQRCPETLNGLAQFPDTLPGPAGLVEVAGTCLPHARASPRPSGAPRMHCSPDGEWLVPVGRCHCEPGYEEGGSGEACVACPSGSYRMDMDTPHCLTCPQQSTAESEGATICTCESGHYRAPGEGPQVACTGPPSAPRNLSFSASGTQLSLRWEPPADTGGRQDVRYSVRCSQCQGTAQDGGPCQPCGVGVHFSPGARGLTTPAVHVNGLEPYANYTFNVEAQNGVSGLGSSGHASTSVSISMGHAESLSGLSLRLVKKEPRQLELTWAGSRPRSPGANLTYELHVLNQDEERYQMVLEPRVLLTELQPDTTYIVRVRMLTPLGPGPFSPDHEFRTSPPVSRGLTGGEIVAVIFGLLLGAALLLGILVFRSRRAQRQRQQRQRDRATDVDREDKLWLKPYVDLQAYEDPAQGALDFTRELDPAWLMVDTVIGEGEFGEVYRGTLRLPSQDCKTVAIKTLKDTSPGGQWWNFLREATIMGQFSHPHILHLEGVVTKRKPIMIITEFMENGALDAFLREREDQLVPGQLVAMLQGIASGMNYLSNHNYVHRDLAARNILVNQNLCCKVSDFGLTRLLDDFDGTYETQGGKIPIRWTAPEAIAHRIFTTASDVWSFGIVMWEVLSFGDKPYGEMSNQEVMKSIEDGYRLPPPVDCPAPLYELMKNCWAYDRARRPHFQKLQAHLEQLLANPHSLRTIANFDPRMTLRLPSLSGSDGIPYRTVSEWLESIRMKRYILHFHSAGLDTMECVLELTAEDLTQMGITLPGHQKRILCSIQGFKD", "conditions": "for logFC of EPHA1 (P21709): Experiment wp114; for logFC EPHA1: protein EPHA1 (P21709), experiment wp114, direction of change down"}, "[3]": {"target": "protein kinases (human kinome) (Homo sapiens, UniProt O00311)", "sequence (O00311 whole entry)": "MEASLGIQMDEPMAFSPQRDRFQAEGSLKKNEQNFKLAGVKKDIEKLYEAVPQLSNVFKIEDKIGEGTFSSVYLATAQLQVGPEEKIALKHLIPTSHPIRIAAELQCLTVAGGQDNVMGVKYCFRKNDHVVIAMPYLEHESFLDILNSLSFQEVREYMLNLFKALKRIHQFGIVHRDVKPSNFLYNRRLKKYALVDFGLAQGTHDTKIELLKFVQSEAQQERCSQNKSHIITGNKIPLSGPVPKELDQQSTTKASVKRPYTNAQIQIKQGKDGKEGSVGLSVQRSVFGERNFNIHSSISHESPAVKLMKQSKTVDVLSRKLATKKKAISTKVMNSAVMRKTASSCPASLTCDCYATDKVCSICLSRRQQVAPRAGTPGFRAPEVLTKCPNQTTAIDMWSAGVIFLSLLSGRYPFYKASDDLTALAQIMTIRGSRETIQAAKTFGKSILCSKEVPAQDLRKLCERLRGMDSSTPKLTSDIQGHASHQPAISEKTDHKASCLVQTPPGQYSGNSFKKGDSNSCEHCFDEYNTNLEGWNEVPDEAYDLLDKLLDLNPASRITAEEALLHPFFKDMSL", "conditions": "for logFC: CDC7 (O00311-1)"}, "[4]": {"target": "T2, protein kinases (human kinome) (Homo sapiens, UniProt P52789)", "T2 sequence (P52789 1-917)": "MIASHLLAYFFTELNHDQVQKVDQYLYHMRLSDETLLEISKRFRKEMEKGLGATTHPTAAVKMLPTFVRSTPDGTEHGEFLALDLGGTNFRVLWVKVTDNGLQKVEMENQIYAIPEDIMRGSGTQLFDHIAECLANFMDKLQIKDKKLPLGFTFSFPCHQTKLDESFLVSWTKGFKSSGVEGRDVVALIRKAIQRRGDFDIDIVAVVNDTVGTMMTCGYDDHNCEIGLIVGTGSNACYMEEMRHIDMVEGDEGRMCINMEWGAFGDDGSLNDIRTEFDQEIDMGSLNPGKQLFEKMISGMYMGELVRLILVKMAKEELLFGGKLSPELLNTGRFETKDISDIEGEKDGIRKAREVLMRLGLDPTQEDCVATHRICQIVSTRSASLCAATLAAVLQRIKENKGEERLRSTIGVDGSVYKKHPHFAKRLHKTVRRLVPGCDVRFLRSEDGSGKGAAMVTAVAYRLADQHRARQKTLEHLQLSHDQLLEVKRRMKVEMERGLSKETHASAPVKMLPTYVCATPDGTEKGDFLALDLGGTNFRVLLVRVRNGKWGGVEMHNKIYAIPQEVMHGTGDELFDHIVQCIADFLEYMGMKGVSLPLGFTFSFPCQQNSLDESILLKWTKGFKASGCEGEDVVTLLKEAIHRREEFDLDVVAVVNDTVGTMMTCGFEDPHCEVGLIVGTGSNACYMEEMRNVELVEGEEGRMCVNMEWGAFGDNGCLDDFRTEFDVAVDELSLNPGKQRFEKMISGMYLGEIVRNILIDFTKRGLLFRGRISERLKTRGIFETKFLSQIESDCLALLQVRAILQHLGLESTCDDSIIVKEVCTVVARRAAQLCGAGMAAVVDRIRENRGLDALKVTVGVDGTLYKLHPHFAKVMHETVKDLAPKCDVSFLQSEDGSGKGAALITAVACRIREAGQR", "conditions": "HK2 (P52789); experiment wp076"}, "[5]": {"target": "protein kinases (human kinome) (Homo sapiens, UniProt P51617)", "sequence (P51617 whole entry)": "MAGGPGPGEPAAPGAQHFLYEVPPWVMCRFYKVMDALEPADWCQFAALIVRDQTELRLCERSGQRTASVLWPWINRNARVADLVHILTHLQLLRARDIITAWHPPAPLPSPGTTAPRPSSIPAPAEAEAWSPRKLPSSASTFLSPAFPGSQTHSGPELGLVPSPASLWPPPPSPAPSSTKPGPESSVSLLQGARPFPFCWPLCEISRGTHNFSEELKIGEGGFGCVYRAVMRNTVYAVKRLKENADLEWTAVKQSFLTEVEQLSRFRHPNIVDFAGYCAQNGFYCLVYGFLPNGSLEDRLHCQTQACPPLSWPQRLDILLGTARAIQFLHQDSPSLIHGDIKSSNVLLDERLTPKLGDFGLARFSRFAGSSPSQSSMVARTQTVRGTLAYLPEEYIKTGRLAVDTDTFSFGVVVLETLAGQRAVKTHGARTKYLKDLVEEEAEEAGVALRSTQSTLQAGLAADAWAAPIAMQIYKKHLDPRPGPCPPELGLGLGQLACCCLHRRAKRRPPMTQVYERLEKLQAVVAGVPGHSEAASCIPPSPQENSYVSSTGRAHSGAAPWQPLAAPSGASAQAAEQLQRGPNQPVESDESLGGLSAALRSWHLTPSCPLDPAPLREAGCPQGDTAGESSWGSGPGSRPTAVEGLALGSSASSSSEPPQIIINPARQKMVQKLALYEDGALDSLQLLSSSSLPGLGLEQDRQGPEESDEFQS", "conditions": "IRAK1 (P51617)"}, "[6]": {"target": "protein kinases (human kinome) (Homo sapiens, UniProt P36894)", "sequence (P36894 24-532)": "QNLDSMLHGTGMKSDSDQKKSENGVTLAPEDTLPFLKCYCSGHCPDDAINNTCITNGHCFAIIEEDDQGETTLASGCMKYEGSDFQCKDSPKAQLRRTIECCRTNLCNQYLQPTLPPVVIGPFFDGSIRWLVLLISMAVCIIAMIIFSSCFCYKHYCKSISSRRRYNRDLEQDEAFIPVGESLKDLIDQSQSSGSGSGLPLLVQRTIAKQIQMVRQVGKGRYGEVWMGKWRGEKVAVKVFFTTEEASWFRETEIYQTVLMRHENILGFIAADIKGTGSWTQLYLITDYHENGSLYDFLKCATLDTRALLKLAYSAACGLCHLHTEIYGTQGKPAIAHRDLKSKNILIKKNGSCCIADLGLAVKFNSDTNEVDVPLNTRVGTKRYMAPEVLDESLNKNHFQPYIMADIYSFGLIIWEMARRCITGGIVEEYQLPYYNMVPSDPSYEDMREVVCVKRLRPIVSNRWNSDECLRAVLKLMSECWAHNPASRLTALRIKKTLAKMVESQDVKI", "conditions": "for logFC: BMPR1A (P36894)"}},
  "note": "Like-named read-outs stand apart in the source and are kept apart here.",
  "data": [
    {"smiles": "Cc1ccc(NC(=O)c2cccc(C(F)(F)F)c2)cc1N1Cc2cnc(Nc3ccc(N4CCN(Cc5cn(CCCCCOc6cccc7c6C(=O)N(C6CCC(=O)NC6=O)C7=O)nn5)CC4)nc3)nc2N(C)C1=O", "note": "(stereo not drawn) [DB0646, N-(3-(7-((6-(4-((1-(5-((2-(2,6-Dioxopiperidin-3-yl)-1,3-dioxoisoindolin-4-yl)oxy)pentyl)-1H-1,2,3-triazol-4-yl)methyl)piperazin-1-v)pyridin-3-yl)amino)-1-methyl-2-oxo-1,4-dihydropyrimido[4,5-d]pyrimidin-3(2H)-yl)-4-methylphenyl)-3-(trifluoromethyl)benzamide]", "values": [
      {"measurement": "logFC of RIPK2 (O43353-1)", "setting": "[1]; Experiment wp172", "result": "−0.4779"},
      {"measurement": "logFC", "setting": "[1]; experiment wp105", "result": "−0.4215"},
      {"measurement": "logFC", "setting": "[1]; experiment wp172", "result": "−0.4779"},
      {"measurement": "logFC of RIPK2 (O43353-1)", "setting": "[1]; experiment wp105", "result": "−0.4215"}
    ]},
    {"smiles": "Cc1ncsc1-c1ccc([C@H](C)NC(=O)[C@@H]2C[C@@H](O)CN2C(=O)[C@@H](NC(=O)CCOCCOCCN2CCN(c3ccc(Nc4ncc(Cl)c(Nc5ccccc5S(=O)(=O)C(C)C)n4)cc3)CC2)C(C)(C)C)cc1", "note": "[FMF.06.098.1]", "values": [
      {"measurement": "logFC of EPHA1 (P21709)", "setting": "[2]", "result": "−0.422"},
      {"measurement": "logFC EPHA1", "setting": "[2]", "result": "−0.422"},
      {"measurement": "logFC", "setting": "[3]; experiment wp108", "result": "−0.3323"},
      {"measurement": "logFC", "setting": "[3]; experiment wp131", "result": "−0.4109"},
      {"measurement": "logFC of CDC7 (O00311-1)", "setting": "[3]; Experiment wp108", "result": "−0.3323"},
      {"measurement": "logFC of CDC7 (O00311-1)", "setting": "[3]; experiment wp131", "result": "−0.4109"}
    ]},
    {"smiles": "CNC(=O)c1ccccc1Nc1cc(Nc2ccc(N3CCN(CCOCCOCCNC(=O)CNc4cccc5c4C(=O)N(C4CCC(=O)NC4=O)C5=O)CC3)cc2OC)ncc1C(F)(F)F", "note": "(stereo not drawn) [MFH.5.103.1]", "values": [
      {"measurement": "logFC", "setting": "[4]", "result": "−0.3819"}
    ]},
    {"smiles": "O=C1CCC(N2C(=O)c3cccc(NCCCCCCCCN4CCC(NC(=O)c5[nH]ncc5NC(=O)c5c(Cl)cccc5Cl)CC4)c3C2=O)C(=O)N1", "note": "(stereo not drawn) [MFH.5.126.1]", "values": [
      {"measurement": "logFC", "setting": "[4]", "result": "−0.322"}
    ]},
    {"smiles": "Cc1ccc(C(=O)Nc2ccc(CN3CCN(CCCOCCOCCOCCNC(=O)COc4cccc5c4C(=O)N(C4CCC(=O)NC4=O)C5=O)CC3)c(C(F)(F)F)c2)cc1C#Cc1cnc2cccnn12", "note": "(stereo not drawn) [SB1.G.187]", "values": [
      {"measurement": "logFC of RIPK2 (O43353-1)", "setting": "[1]; Experiment wp114", "result": "−0.8828"},
      {"measurement": "logFC", "setting": "[1]; experiment wp105", "result": "−0.572"},
      {"measurement": "logFC", "setting": "[1]; experiment wp114", "result": "−0.8828"},
      {"measurement": "logFC of RIPK2 (O43353-1)", "setting": "[1]; experiment wp105", "result": "−0.572"},
      {"measurement": "logFC", "setting": "[5]; experiment wp056", "result": "−1.578"},
      {"measurement": "logFC", "setting": "[5]; experiment wp056, direction down", "result": "−1.578"},
      {"measurement": "logFC", "setting": "[5]; experiment wp103", "result": "−1.504"},
      {"measurement": "logFC", "setting": "[5]; experiment wp103, direction down", "result": "−1.504"},
      {"measurement": "logFC", "setting": "[5]; experiment wp105", "result": "−1.404"},
      {"measurement": "logFC", "setting": "[5]; experiment wp105, direction down", "result": "−1.404"},
      {"measurement": "logFC", "setting": "[5]; experiment wp107", "result": "−1.996"},
      {"measurement": "logFC", "setting": "[5]; experiment wp107, direction down", "result": "−1.996"},
      {"measurement": "logFC", "setting": "[5]; experiment wp172", "result": "−1.572"},
      {"measurement": "logFC", "setting": "[5]; experiment wp172, direction down", "result": "−1.572"},
      {"measurement": "logFC of EPHA1 (P21709)", "setting": "[2]", "result": "−0.3552"},
      {"measurement": "logFC EPHA1", "setting": "[2]", "result": "−0.3552"}
    ]},
    {"smiles": "CC(C)S(=O)(=O)c1ccccc1Nc1nc(Nc2ccc(N3CCN(CCOCCNC(=O)CNc4cccc5c4C(=O)N(C4CCC(=O)NC4=O)C5=O)CC3)cc2)ncc1Cl", "note": "(stereo not drawn) [SK.3.91]", "values": [
      {"measurement": "logFC", "setting": "[6]; experiment wp105", "result": "−0.4077"},
      {"measurement": "logFC", "setting": "[6]; experiment wp107", "result": "−1.103"},
      {"measurement": "logFC", "setting": "[6]; experiment wp133, 4 hr", "result": "−0.8007"},
      {"measurement": "logFC of BMPR1A (P36894)", "setting": "[6]; Experiment wp107", "result": "−1.103"},
      {"measurement": "logFC of BMPR1A (P36894)", "setting": "[6]; experiment wp105", "result": "−0.4077"},
      {"measurement": "logFC of BMPR1A (P36894)", "setting": "[6]; experiment wp133, 4 hr", "result": "−0.8007"},
      {"measurement": "logFC", "setting": "[3]; experiment wp133, 4 hr", "result": "−0.3652"},
      {"measurement": "logFC of CDC7 (O00311-1)", "setting": "[3]; experiment wp133, 4 hr", "result": "−0.3652"}
    ]},
    {"smiles": "CC(C)S(=O)(=O)c1ccccc1Nc1nc(Nc2ccc(N3CCN(CCOCCOCCNC(=O)CNc4cccc5c4C(=O)N(C4CCC(=O)NC4=O)C5=O)CC3)cc2)ncc1Cl", "note": "(stereo not drawn) [TL12.186]", "values": [
      {"measurement": "logFC", "setting": "[6]; experiment wp131", "result": "−0.8334"},
      {"measurement": "logFC", "setting": "[6]; experiment wp137", "result": "−0.6566"},
      {"measurement": "logFC of BMPR1A (P36894)", "setting": "[6]; experiment wp131", "result": "−0.8334"},
      {"measurement": "logFC of BMPR1A (P36894)", "setting": "[6]; experiment wp137", "result": "−0.6566"}
    ]},
    {"smiles": "Cc1ccc(C(=O)Nc2ccc(CN3CCN(CCOCCOCCNC(=O)CNc4cccc5c4C(=O)N(C4CCC(=O)NC4=O)C5=O)CC3)c(C(F)(F)F)c2)cc1C#Cc1cnc2cccnn12", "note": "(stereo not drawn) [TL13.150]", "values": [
      {"measurement": "logFC", "setting": "[5]; experiment wp081", "result": "−2.834"},
      {"measurement": "logFC", "setting": "[5]; experiment wp081, direction down", "result": "−2.834"}
    ]}
  ]
}
